ChEMBL document CHEMBL5126640, “Sanggenon C Suppresses Tumorigenesis of Gastric Cancer by Blocking ERK-Drp1-Mediated Mitochondrial Fission” (J Nat Prod, 2022)
Active and inactive are the calls of the source. No cut-off for these calls is given here.

Assays:
HGC-27 [1] = experiment: Induction of apoptosis in human HGC-27 cells assessed as late apoptotic cells at 10 uM measured after 24 hrs by AnnexinV-FITC/PI staining based flowcytometry method (reference value: 5.4%); assay type: functional
HGC-27 [2] = experiment: Induction of apoptosis in human HGC-27 cells assessed as increase in cleaved caspase-3 level at 0 to 10 uM by Western blot analysis; assay type: functional, cell-based; conditions: dose 0-10 µM
AGS [3] = experiment: Induction of apoptosis in human AGS cells assessed as early apoptotic cells at 10 uM measured after 24 hrs by AnnexinV-FITC/PI staining based flowcytometry method (reference value: 1.2%); assay type: functional
HGC-27 [4] = experiment: Induction of apoptosis in human HGC-27 cells assessed as viable cells measured after 24 hrs by AnnexinV-FITC/PI staining based flow cytometry method (reference value: 96.6%); assay type: functional
AGS [5] = experiment: Induction of apoptosis in human AGS cells assessed as necrotic cells at 6 uM measured after 24 hrs by AnnexinV-FITC/PI staining based flowcytometry method (reference value: 0.2%); assay type: functional
AGS [6] = experiment: Induction of cell cycle arrest in human AGS cells assessed as accumulation of cells at G0/G1 phase at 6 uM incubated for 24 hrs propidium iodide staining-based flow cytometric analysis (reference value: 46.51%); assay type: functional
AGS [7] = experiment: Induction of apoptosis in human AGS cells assessed as viable cells at 10 uM measured after 24 hrs by AnnexinV-FITC/PI staining based flowcytometry method (reference value: 95.2%); assay type: functional; conditions: read-out: Activity
AGS [8] = experiment: Induction of apoptosis in human AGS cells assessed as early apoptotic cells at 6 uM measured after 24 hrs by AnnexinV-FITC/PI staining based flowcytometry method (reference value: 1.2%); assay type: functional
HGC-27 [9] = experiment: Induction of apoptosis in human HGC-27 cells assessed as late apoptotic cells at 8 uM measured after 24 hrs by AnnexinV-FITC/PI staining based flowcytometry method (reference value: 5.4%); assay type: functional
HGC-27 [10] = experiment: Induction of apoptosis in human HGC-27 cells assessed as late apoptotic cells measured after 24 hrs by AnnexinV-FITC/PI staining based flow cytometry method (reference value: 1.6%); assay type: functional
HGC-27 [11] = experiment: Inhibition of mitochondrial fission in human HGC-27 cells assessed as downregulation of p-DRP1 at 0 to 10 uM measured after 24 hrs by Western blot analysis; assay type: functional, cell-based; conditions: dose 0-10 µM
AGS [12] = experiment: Induction of apoptosis in human AGS cells assessed as late apoptotic cells at 6 uM measured after 24 hrs by AnnexinV-FITC/PI staining based flowcytometry method (reference value: 3.4%); assay type: functional
HGC-27 [13] = experiment: Induction of apoptosis in human HGC-27 cells assessed as necrotic cells at 6 uM measured after 24 hrs by AnnexinV-FITC/PI staining based flowcytometry method (reference value: 0.2%); assay type: functional
AGS [14] = experiment: Induction of apoptosis in human AGS cells transfected with pcDNA3.1-Drp1 plasmid to overexpress DRP1 assessed as necrotic cells and measured after 24 hrs by AnnexinV-FITC/PI staining based flow cytometry method (reference value: 0.2 %); assay type: functional

Q: Which results are given for `CC(C)=CCC12Oc3cc(O)ccc3C1(O)Oc1cc(O)c([C@H]3C=C(C)C[C@H](c4ccc(O)cc4O)[C@H]3C(=O)c3ccc(O)cc3O)c(O)c1C2=O` (some centres undefined)?
A: Activity (HGC-27 [1]): 15.9%; Activity (HGC-27 [2]): Active; Activity (AGS [3]): 3.2%; Activity (HGC-27 [4]): 91.3%; Activity (AGS [5]): 0.2%; Activity (AGS [6]): 54.7%; viability at 10 µM (AGS [7]): 81.2%; Activity (AGS [8]): 1.7%; Activity (HGC-27 [9]): 11.1%; Activity (HGC-27 [10]): 3.9%; inhibition (HGC-27 [11]): Active; Activity (AGS [12]): 7.9%; Activity (HGC-27 [13]): 1.5%; Activity (AGS [14]): 0.1%
